Values quoted from earlier work in US20180327482A1, “METHODS AND COMPOSITIONS FOR THE TREATMENT OF HCMV” (priority 2013, published 2018).

System: cells latently infected with HCMV
Settings: Weekes et al., Science 340:199-202 (2013)

Compound: CC[C@]1(O)C[C@H]2CN(CCc3c([nH]c4ccccc34)[C@@](C(=O)OC)(c3cc4c(cc3OC)N(C=O)[C@H]3[C@@](O)(C(=O)OC)[C@H](OC(C)=O)[C@]5(CC)C=CCN6CC[C@]43[C@@H]65)C2)C1 [Vincristine]
- Elimination of cells latently infected with HCMV: can be used therapeutically to eliminate cells latently infected with HCMV
